# Reference: patent US11166940B2, “Treatment of cardiac disorders by blocking SK4 potassium channel” (Ramot at Tel-Aviv University Ltd., priority 2016, dated 2021)
# Tests used:
# [1] = system: SAN cells; experiment: Spontaneous APs / pacing rate of isolated SAN cells from WT mice (patch clamp); type: cell-based, mouse; conditions: 2 μM TRAM-34 added to 50 nM isoproterenol
# Method: (§1) WT and CASQ2 D307H KI mice were anesthetized with isofluorane and sacrificed by cervical dislocation. The heart was rapidly removed and transferred into Tyrode solution containing heparin. […] The area was cleaned, cut into small strips and washed into a Low Calcium Solution, containing (in mM): 140 NaCl, 5.4 KCl, 0.5 MgCl2, 1.2 KH2PO4, 5 HEPES-NaOH, 50 taurine, 5.5 glucose (pH 6.9). The osmolarity was adjusted if needed to 315 mOsm.
# The same solution, supplemented with 1 mg/ml albumin, 200 μM CaCl2, collagenase Type I (Worthington) or liberase TH (Roche), protease (Sigma) and elastase (Sigma) was used for enzymatic digestion as previously described [See, Mesirca, P., et al. Nat Commun 5, 4664 (2014)]. In this step, the tissue was gently resuspended with a polished Pasteur pipette in this solution for 9-13 minutes at 37° C. SAN samples were then washed three times in a modified “Kraftbrühe” solution, containing (in mM): 70 glutamic acid, 80 KOH, 20 KCl, 10 γ-Hydroxybutyric acid sodium salt, 10 KH2PO4, 10 HEPES-KOH, 10 taurine, 1 mg/ml albumin, 0.1 EGTA-KOH (pH 7.2). The same solution was used to re-suspend the single cells with a pipet by vigorous up and down, between 3 to 5 minutes at 37° C. Cells were then gradually exposed to increasing concentrations of calcium, following a “Ca^2+ readaptation” protocol [Mesirca et al., 2014, supra]. Experiments were performed the same day at 33° C.
# (§2) In all experiments, the coverslips were perfused at 33° C. with an external solution containing (in mM): 140 NaCl, 4 KCl, 11 Glucose, 1.2 MgCl2, 1.8 CaCl2, 5.5 HEPES titrated to pH 7.4 with NaOH and adjusted at 320 mOsm with sucrose.
# The spontaneous automaticity of isolated SAN cells was recorded under perforated-patch conditions by adding 30 μM β-escin49 to the intracellular solution containing (in mM): 130 KCl, 10 NaCl, 10 HEPES, 0.2 EGTA-KOH, 2 MgATP, 6.6 Phosphocreatine, 0.05 cAMP and 1 μM free Ca^2+ (pH 7.2). To record SK4 K+ current, a voltage ramp protocol was applied. SAN and hiPS-CMs were held at −40 mV and −20 mV, respectively to substantially inactivate voltage-gated Na^+ and Ca^2+ currents. Cells were stepped from −90 mV to +60 mV for 150 ms. Then, a cocktail (solution 1) containing (in mM) 0.3 cadmium, 0.025 ZD-7288 and 0.01 E-4031 was applied extracellularly to inhibit residual L-type and T-type voltage-gated Ca2+ currents, If and the IKr currents, respectively. […] For voltage-clamp recording of SAN cells, the intracellular solution was the same to that described above for recording spontaneous automaticity.
# The spontaneous electric activity of the cell was recorded in the current clamp configuration of the patch clamp technique before (black trace) and during (violet trace) exposure to 2 μM clotrimazole.
# FIG. 5E (Left) presents representative traces of spontaneous APs recorded in single SAN cell from WT mice.
# [2] = system: SAN cells from CASQ2-D307H KI mice; experiment: Spontaneous APs and DADs of isolated SAN cells from CASQ2 D307H KI mice; type: cell-based, mouse; conditions: 2 μM TRAM-34 added to 50 nM isoproterenol
# Method: as §1
# The same solution, supplemented with 1 mg/ml albumin, 200 μM CaCl2, collagenase Type I (Worthington) or liberase TH (Roche), protease (Sigma) and elastase (Sigma) was used for enzymatic digestion as previously described [See, Mesirca, P., et al. Nat Commun 5, 4664 (2014)]. In this step, the tissue was gently resuspended with a polished Pasteur pipette in this solution for 9-13 minutes at 37° C. SAN samples were then washed three times in a modified “Kraftbrühe” solution, containing (in mM): 70 glutamic acid, 80 KOH, 20 KCl, 10 γ-Hydroxybutyric acid sodium salt, 10 KH2PO4, 10 HEPES-KOH, 10 taurine, 1 mg/ml albumin, 0.1 EGTA-KOH (pH 7.2). […] Cells were then gradually exposed to increasing concentrations of calcium, following a “Ca^2+ readaptation” protocol [Mesirca et al., 2014, supra]. […]
# FIG. 5F (Left) presents representative traces of spontaneous APs recorded in single SAN cell from CASQ2 D307H KI mice. […]
# [3] = system: normal hiPSC-CMs; experiment: Spontaneous APs in hiPS-CMs derived from normal individuals; type: cell-based, human; conditions: 5 μM TRAM-34 added to 3 μM isoproterenol
# Method: as §2
# FIG. 4E (Left) presents representative traces of spontaneous APs recorded in hiPS-CM derived from a normal individual. […] FIG. 4E (Right) are bar graphs presenting data summary of pacing rate (normalized to Ctrl; one-way ANOVA **P=0.0071, n=14), DD slope (paired t-test, ***P<0.0001, n=14) and APD50 (one-way ANOVA *P=0.0243, n=18).
# [4] = biological target: T1, SK4 K+ currents (Mus musculus, UniProt O89109); experiment: Voltage-ramp recording of TRAM-34-sensitive current in SAN cells from WT and CASQ2-D307H KI mice; type: cell-based; conditions: 5 μM TRAM-34 added to solution 1
# T1 construct: representative traces of SAN cells isolated from WT and CASQ2-D307H KI mice; endogenous in cells; host or cells: primary sinoatrial node (SAN) cells dissociated from WT and CASQ2-D307H KI mouse hearts
# Excerpt: Individual SAN cells were isolated from WT and CASQ2-D307H homozygous KI mice and recorded as described above, except that cells were held at −40 mV to improve their stability.
# FIGS. 5A-B presents representative traces of SAN cells isolated from WT and CASQ2-D307H KI mice. […] The orange traces indicate that cells were exposed to blocker solution 1. […] The inward hump and substantial inward and outward currents disappeared upon exposure of cells to solution 1 (orange traces).
structure (smiles),measurement,setting,value
"Clc1ccccc1C(c1ccccc1)(c1ccccc1)n1cccn1 [TRAM-34, 1-[(2-chlorophenyl)diphenylmethyl]-1H-pyrazole]",DD slope,[1],markedly reduced the DD slope
same,MDP,[1],depolarized the MDP
same,beating rate,[1],decreased the beating rate
same,cells in which pacing activity stopped,[1],3 out of 7
same,occurrence of DADs,[2],drastically reduced
same,cells with suppression of the pacing,[3],10 out of 14
same,maximal diastolic potential (MDP),[3],depolarized the maximal diastolic potential
same,slope of diastolic depolarization (DD),[3],significantly decreased the slope of diastolic depolarization
same,TRAM-34-sensitive current density,[4],TRAM-34-sensitive currents with similar densities were isolated
